Data as given in US20130150363A1, “Method of Treating Cancer Using a cMET and AXL Inhibitor and an ErbB Inhibitor” (GlaxoSmithKline, priority 2008, published 2013).

Tests used:
[1] = tested on: SNU-16 gastric carcinoma cells; assay: Cell growth inhibition (CellTiter-Glo), SNU-16; assay type: cell-based; conditions: Homo sapiens, SNU-16, 72 h, 3 days
From the text: (§1) Esophageal carcinoma cell line OE33 was purchased from ECACC European Collection of Cell Cultures (UK). Breast cancer cell line JIMT-1 and gastric carcinoma cell line MKN-45 were purchased from Deutsche Sammlung von Mikroorganismen and Zellkulturen GmbH (Germany); KPL-4, a human breast cancer cell line was kindly provided by Prof. J Kurebayashi (Kawasaki Medical School, Kurashiki, Japan). […] The LICR-LON-HN5 head and neck carcinoma cell line (HN5) was a gift from the Institute of Cancer Research, Surrey, U.K. HN5C12 was developed by single-cell cloning of HN5 followed by exposure to increasing concentrations of lapatinib. […] Cell growth inhibition was determined via CellTiter-Glo cell viability assays. […] ATP levels were determined by adding Cell Titer Glo0 (Promega), incubating for 20 minutes then the luminescent signal was read on the SpectraMax M5 plate with a 0.5 second integration time. Cell growth was calculated relative to vehicle (DMSO) treated control wells. […] CI values were calculated with the interpolated IC50 values and the mutually non-exclusive equation derived by Chou and […](a)+Db/IC50(b)+(Da×Db)/(IC50(a)×IC50(b)) where IC50(a) is the IC50 of the inhibitor A; IC50(b) is the IC50 for the inhibitor B; […] […] EOHSA at each dose was calculated as the minimum difference in average % inhibition between the combination and each monotherapy, from the appropriate ANOVA contrast. […]

[2] = tested on: SW48 colon carcinoma cells; assay: Cell growth inhibition (CellTiter-Glo), SW48; assay type: cell-based; conditions: Homo sapiens, SW48, 72 h, 3 days
From the text: as §1

BT474 cells = assay: Cell apoptosis assays (Cell Death ELISA, Caspase-Glo 3/7), BT474; assay type: cell-based, human; conditions: BT474, presence of HGF (FIG. 4)
Description: Cell apoptosis was measured by both a cell death ELISA method, which measures DNA fragmentation, a hallmark of apoptosis; and Caspase-Glo® 3/7 assay which detects the activity of caspase 3/7, one of the execution enzymes for apoptosis in cells.
The Cell Death ELISA^Plus kit (Roche, Mannheim, Germany) was used according to the manufacturer's instructions. Cells were seeded in 96-well plates at 10,000 per well. After 24 h, cells were dosed and grown for an additional 48 h in RPMI 1640 with 10% FBS in 5% CO2 at 37° C. Cytoplasmic fractions of control and treated cells were transferred into streptavidin-coated 96-well plates and incubated with biotinylated mouse antihistone antibody and peroxidase-conjugated mouse anti-DNA antibody at room temperature for 2 h. Absorbance was determined at 405-490 nm using a Spectra Max Gemini microplate reader (Molecular Devices, Sunnyvale, Calif.).
The Caspase-Glo® 3/7 assay (Promega) is a homogeneous luminescent assay that measures caspase-3 and -7 activities. Cells were seeded in 96-well plates at 5,000 per well. […] Caspase 3/7 activity was detected by adding luminogenic caspase-3/7 substrate, which contains the tetrapeptide sequence DEVD, in a reagent optimized for caspase activity, luciferase activity and cell lysis, according to the manufacturer's instructions.

[3] = tested on: BT474-J4 lapatinib resistant breast carcinoma cells; assay: Cell growth inhibition (CellTiter-Glo), BT474-J4; assay type: cell-based; conditions: Homo sapiens; for IC50: 72 h, 3 days
From the text: Esophageal carcinoma cell line OE33 was purchased from ECACC European Collection of Cell Cultures (UK). Breast cancer cell line JIMT-1 and gastric carcinoma cell line MKN-45 were purchased from Deutsche Sammlung von Mikroorganismen and Zellkulturen GmbH (Germany); KPL-4, a human breast cancer cell line was kindly provided by Prof. J Kurebayashi (Kawasaki Medical School, Kurashiki, Japan). […] The LICR-LON-HN5 head and neck carcinoma cell line (HN5) was a gift from the Institute of Cancer Research, Surrey, U.K. HN5C12 was developed by single-cell cloning of HN5 followed by exposure to increasing concentrations of lapatinib. […] Cell growth inhibition was determined via CellTiter-Glo cell viability assays. […] BT474-J4 and HN5C12 were washed with PBS and plated in their culture media without lapatinib. […] ATP levels were determined by adding Cell Titer Glo0 (Promega), incubating for 20 minutes then the luminescent signal was read on the SpectraMax M5 plate with a 0.5 second integration time. Cell growth was calculated relative to vehicle (DMSO) treated control wells. […] Excess Over Highest Single Agent (EOHSA) is defined as a statistically significant improvement in the combination compared to the component monotherapies. […] Analysis was conducted using two-factor analysis of variance with interaction (model terms were dose of drug A, dose of drug B, and interaction between doses of drug A and B), followed by linear contrasts between each combination group and corresponding monotherapies. Analysis was conducted using SAS (version 9, provided by SAS Institute, Cary, N.C.). EOHSA at each dose was calculated as the minimum difference in average % inhibition between the combination and each monotherapy, from the appropriate ANOVA contrast. Since there are many comparisons for the % inhibition endpoint, p-value adjustment for multiple comparisons was performed. Hommel's procedure was implemented in order to improve the power while retaining […] […] The p-values for both synergy and antagonism were calculated using this adjustment.

[4] = tested on: HCC1954 breast carcinoma cells; assay: Cell growth inhibition (CellTiter-Glo), HCC1954; assay type: cell-based; conditions: Homo sapiens, HCC1954, 72 h, 3 days
From the text: as §1

[5] = tested on: MKN-45 gastric carcinoma cells; assay: Cell growth inhibition (CellTiter-Glo), MKN-45; assay type: cell-based; conditions: Homo sapiens, MKN-45, MKN-45 (HER3-over)
From the text: as §1

Structure (SMILES)	IC50 ([1]; gastric_SNU16, +HGF (2 ng/mL)) [µM]	IC50 ([1]; gastric_SNU16, −HGF) [µM]	IC50 ([2]; colon_SW48, +HGF (2 ng/mL)) [µM]	IC50 ([2]; colon_SW48, −HGF) [µM]	apoptosis induction (DNA fragmentation and caspase 3/7 activation) (BT474 cells)	IC50 ([3]; breast_BT474-J4, +HGF (2 ng/mL)) [µM]	IC50 ([3]; breast_BT474-J4, −HGF) [µM]	inhibition at 1 µM ([3]; BT474-J4, lapatinib by itself at 1.0 μM (FIG. 5A)) [%]	IC50 ([4]; breast_HCC1954, +HGF (2 ng/mL)) [µM]	IC50 ([4]; breast_HCC1954, −HGF) [µM]	IC50 ([5]; +HRG (10 ng/mL)) [µM]	IC50 ([5]; −HRG) [µM]
C#Cc1cccc(Nc2ncnc3cc(OCCOC)c(OCCOC)cc23)c1 [Erlotinib, N-(3-ethynylphenyl)-6,7-bis{[2-(methyloxy)ethyl]oxy}-4-quinazolinamine]	9.37	6.46	2.62	2.35								
CS(=O)(=O)CCNCc1ccc(-c2ccc3ncnc(Nc4ccc(OCc5cccc(F)c5)c(Cl)c4)c3c2)o1 [Lapatinib, N-(3-chloro-4-{[(3-fluorophenyl)methyl]oxy}phenyl)-6-[5-({[2-(methylsulfonyl)ethyl]amino}methyl)-2-furanyl]-4-quinazolinamine]					induces apoptosis	> 10	> 10	< 50	5.27	0.8	5.06	6.16
